Test [1] has as its target T1, ovine COX-1 (Ovis aries, UniProt P05979).
T1 construct: purchased Cayman Chemicals (Ann Arbor, Mich.)
T1 sequence (P05979 25-600): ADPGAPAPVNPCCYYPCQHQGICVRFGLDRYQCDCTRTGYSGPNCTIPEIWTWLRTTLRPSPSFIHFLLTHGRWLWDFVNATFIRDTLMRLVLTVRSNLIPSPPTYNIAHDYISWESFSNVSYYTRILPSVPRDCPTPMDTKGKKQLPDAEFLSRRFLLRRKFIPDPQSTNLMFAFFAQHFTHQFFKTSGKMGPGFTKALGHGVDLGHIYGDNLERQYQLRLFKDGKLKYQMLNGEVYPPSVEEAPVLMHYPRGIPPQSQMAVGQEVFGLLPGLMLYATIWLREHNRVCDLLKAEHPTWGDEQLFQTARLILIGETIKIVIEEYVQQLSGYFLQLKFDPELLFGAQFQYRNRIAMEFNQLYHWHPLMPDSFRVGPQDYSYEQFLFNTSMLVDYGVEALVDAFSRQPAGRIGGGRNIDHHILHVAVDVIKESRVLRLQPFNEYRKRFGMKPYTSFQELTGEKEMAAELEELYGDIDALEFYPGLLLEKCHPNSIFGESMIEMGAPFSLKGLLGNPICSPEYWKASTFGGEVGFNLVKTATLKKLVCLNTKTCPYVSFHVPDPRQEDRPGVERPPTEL
The test is described as follows: COX-1 activity assay using purified enzyme. In kind it is biochemical. The note with it: purified enzyme, Not inhibit: 9′ at 20 μM, acetaminophen at 250 μM. On the procedure: (§1) COX-1 and COX -2 activity assay using purified enzymes—The enzymatic reactions were performed in 0.1M Tris (pH 8.0), in the presence of 5 mM EDTA, 2 mM phenol, and 1 μM heme. […] Enzymatic reactions were initiated by addition of AA at a final concentration of 5 μM for 2 min. The reaction was stopped by addition of 0.1 M HCl. Stannous chloride in 0.1 M HCl was then added to reduce PGG2 and PGH2 to PGF2a. After addition of 0.5 vol of […] NaCl, prostaglandins formed in the reaction were extracted using 2.5 vol of ethyl acetate and the organic layer was completely dried under N2. PGF2a, and PGE2 were quantified using ELISA assays from Cayman Chemicals.

For test [2], the target named is T2, COX-2 (Homo sapiens, UniProt P35354).
T2 sequence (P35354 18-604): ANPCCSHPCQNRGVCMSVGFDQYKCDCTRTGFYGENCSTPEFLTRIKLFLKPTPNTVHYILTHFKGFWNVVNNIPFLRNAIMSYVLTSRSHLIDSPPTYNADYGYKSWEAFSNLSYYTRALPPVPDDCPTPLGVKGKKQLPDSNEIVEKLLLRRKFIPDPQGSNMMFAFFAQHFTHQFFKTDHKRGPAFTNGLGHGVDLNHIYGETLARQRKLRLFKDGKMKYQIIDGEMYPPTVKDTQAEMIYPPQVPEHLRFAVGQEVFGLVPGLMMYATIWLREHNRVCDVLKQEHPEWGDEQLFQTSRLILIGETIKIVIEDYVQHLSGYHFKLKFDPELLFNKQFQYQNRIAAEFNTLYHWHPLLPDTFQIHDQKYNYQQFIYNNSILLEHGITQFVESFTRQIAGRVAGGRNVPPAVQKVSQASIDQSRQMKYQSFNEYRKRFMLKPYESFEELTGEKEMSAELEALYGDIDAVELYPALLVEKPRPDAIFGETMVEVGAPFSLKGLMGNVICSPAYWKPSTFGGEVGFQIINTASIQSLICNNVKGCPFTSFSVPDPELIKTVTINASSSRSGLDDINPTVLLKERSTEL
The test is described as follows: COX-2 activity assay using purified enzyme. The test is classed as biochemical. More on the design: purchased Cayman Chemicals (Ann Arbor, Mich.); IC50 in the enzyme assay: unit not given beside the values. The note with it: for IC50: purified enzyme, Not inhibit: 9′ at 20 μM, acetaminophen at 250 μM. On the procedure:
as §1

Test [3] has as its target T2, COX-2. Details: A549 cells were pre-treated with 0.5-1 ng/mL of IL-1β- for 6 hours to induce COX-2 expression; endogenous in cells. The note with it: previously reported; read-out: IC50 COX-2 in A549 cells; cited from earlier work.

SMILES strings stand for the structures. Read-outs that look alike come from different tables or passages of the source.

Regarding `Cc1c(O)cc2c(c1C)OC(C)(CCC(=O)O)CC2` (stereo not drawn) [γ-CEHC, reference compound], the IC50 in test [1] was 300 ± 50 µM; in test [1] (listed as F-CEHC), 300 to 500 µM; in test [2] it was 450 ± 50 µM; in test [2] (listed as F-CEHC), 300 to 500 µM; in test [3], 30 to 70 µM. Besides, the “IC50 in the enzyme assay” value in test [2] (assays using purified COX-1 or COX-2) was > 3000/1.

These data come from patent publication US20170296505A1, “LONG-CHAIN CARBOXYCHROMANOLS AND ANALOGS FOR USE AS ANTI-INFLAMMATORY AGENTS” (Purdue Research Foundation, priority 2008, published 2017).
